Legend:
[1] = Inhibition of voltage-gated sodium channel in mouse Neuro2a cells assessed as suppression of quabain and veratridine-induced sodium overload cytotoxicity after 24 hrs by MTT assay; format: cell-based; details: N2a
NCI-H460 = assay: Cytotoxicity against human H460 cells after 48 hrs by MTT assay; format: functional, cell-based; details: NCI-H460, 48 h

## CCC[C@H]1OC(=O)[C@H](C(C)C)NC(=O)[C@@H](C(C)C)N(C)C(=O)[C@@H]2CCCN2C(=O)[C@H](Cc2ccccc2)OC(=O)[C@H](C)OC(=O)C1(C)C [PALMYRAMIDE A]
[1]
  IC50: 17.2 µM
NCI-H460
  IC50: 39.7 µM
